Assay results as given in patent US12077503B2, “Substituted cyclic amides and their use as herbicides” (FMC CORPORATION, priority 2015, dated 2024).

How the values were obtained:
Test in all cases: Test C preemergence
Assay type in all cases: in vivo
[1] = system: Galium (catchweed bedstraw, Galium aparine); settings: for Plant response rating, Galium: scale 0 to 100, 0 no effect, 100 complete control
How it was run: (§1)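 Greenhouse test: seeds in a loam and sand blend treated preemergence, or seedlings at the 1- to 4-leaf stage (2 to 18 cm) in a peat, vermiculite and limestone mix treated postemergence, with test chemicals in a surfactant-containing non-phytotoxic solvent. Scored by eye at 13 to 15 d relative to controls, 0 (no effect) to 100 (complete control).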

[2] = system: barnyardgrass (Echinochloa crus-galli); settings: for Plant response rating, Barnyardgrass: scale 0 to 100, 0 no effect, 100 complete control
How it was run: as §1

[3] = system: blackgrass (Alopecurus myosuroides); settings: for Plant response rating, Blackgrass: scale 0 to 100, 0 no effect, 100 complete control
How it was run: as §1

corn (Zea mays) = settings: for Plant response rating, Corn: scale 0 to 100, 0 no effect, 100 complete control
How it was run: as §1

[4] = system: crabgrass, large (large crabgrass, Digitaria sanguinalis); settings: for Plant response rating, Crabgrass, Large: scale 0 to 100, 0 no effect, 100 complete control
How it was run: as §1

[5] = system: foxtail, giant (giant foxtail, Setaria faberii); settings: for Plant response rating, Foxtail, Giant: scale 0 to 100, 0 no effect, 100 complete control
How it was run: as §1

[6] = system: johnsongrass (Sorghum halepense); settings: for Plant response rating, Johnsongrass: scale 0 to 100, 0 no effect, 100 complete control
How it was run: as §1

[7] = system: lambsquarters (Chenopodium album); settings: for Plant response rating, Lambsquarters: scale 0 to 100, 0 no effect, 100 complete control
How it was run: as §1

[8] = system: morningglory (Ipomoea coccinea); settings: for Plant response rating, Morningglory: scale 0 to 100, 0 no effect, 100 complete control
How it was run: as §1

[9] = system: nutsedge, yellow (yellow nutsedge, Cyperus esculentus); settings: for Plant response rating, Nutsedge, Yellow: scale 0 to 100, 0 no effect, 100 complete control
How it was run: as §1

[10] = system: oilseed rape (Brassica napus); settings: for Plant response rating, Oilseed Rape: scale 0 to 100, 0 no effect, 100 complete control
How it was run: as §1

[11] = system: pigweed (Amaranthus retroflexus); settings: for Plant response rating, Pigweed: scale 0 to 100, 0 no effect, 100 complete control
How it was run: as §1

[12] = system: ragweed (common ragweed, Ambrosia elatior); settings: for Plant response rating, Ragweed: scale 0 to 100, 0 no effect, 100 complete control
How it was run: as §1

[13] = system: ryegrass, Italian (Italian ryegrass, Lolium multiflorum); settings: for Plant response rating, Ryegrass, Italian: scale 0 to 100, 0 no effect, 100 complete control
How it was run: as §1

soybean (Glycine max) = settings: for Plant response rating, Soybean: scale 0 to 100, 0 no effect, 100 complete control
How it was run: as §1

[14] = system: velvetleaf (Abutilon theophrasti); settings: for Plant response rating, Velvetleaf: scale 0 to 100, 0 no effect, 100 complete control
How it was run: as §1

[15] = system: waterhemp (common waterhemp, Amaranthus rudis); settings: for Plant response rating, Waterhemp: scale 0 to 100, 0 no effect, 100 complete control
How it was run: as §1

[16] = system: wheat (winter wheat, Triticum aestivum); settings: for Plant response rating, Wheat: scale 0 to 100, 0 no effect, 100 complete control
How it was run: as §1

[17] = 31 g ai/ha, 0 is no effect, 100 is complete control

Cc1ccc(C2CN(C)C(=O)C2C(=O)Nc2ccccc2C(F)(F)F)cc1 (stereo not drawn) [Compound 665]
40: Plant response rating (scale of 0 to 100), Ragweed [12, 17] | Plant response rating, Waterhemp ([15]; 62 g ai/ha)
90: Plant response rating (scale of 0 to 100), Galium [1, 17] | Plant response rating, Galium ([1]; 62 g ai/ha) | Plant response rating, Galium ([1]; 125 g ai/ha) | Plant response rating, Galium ([1]; 250 g ai/ha) | Plant response rating, Blackgrass ([3]; 125 g ai/ha) | Plant response rating, Blackgrass ([3]; 250 g ai/ha) | Plant response rating (scale of 0 to 100), Foxtail, Giant [5, 17] | Plant response rating, Wheat ([16]; 250 g ai/ha)
75: Plant response rating, Corn (corn (Zea mays); 125 g ai/ha) | Plant response rating, Ragweed ([12]; 250 g ai/ha)
15: Plant response rating, Morningglory ([8]; 62 g ai/ha) | Plant response rating (scale of 0 to 100), Wheat [16, 17]
10: Plant response rating, Corn (corn (Zea mays); 62 g ai/ha) | Plant response rating (scale of 0 to 100), Johnsongrass [6, 17] | Plant response rating (scale of 0 to 100), Lambsquarters [7, 17] | Plant response rating, Morningglory ([8]; 250 g ai/ha) | Plant response rating (scale of 0 to 100), Soybean (soybean (Glycine max); [17]) | Plant response rating, Soybean (soybean (Glycine max); 62 g ai/ha) | Plant response rating, Soybean (soybean (Glycine max); 250 g ai/ha)
35: Plant response rating, Velvetleaf ([14]; 62 g ai/ha)
25: Plant response rating, Johnsongrass ([6]; 62 g ai/ha) | Plant response rating, Johnsongrass ([6]; 125 g ai/ha)
80: Plant response rating, Oilseed Rape ([10]; 125 g ai/ha)
60: Plant response rating (scale of 0 to 100), Blackgrass [3, 17] | Plant response rating, Blackgrass ([3]; 62 g ai/ha) | Plant response rating, Oilseed Rape ([10]; 62 g ai/ha) | Plant response rating, Pigweed ([11]; 62 g ai/ha) | Plant response rating, Ryegrass, Italian ([13]; 62 g ai/ha) | Plant response rating, Ryegrass, Italian ([13]; 250 g ai/ha) | Plant response rating, Velvetleaf ([14]; 125 g ai/ha)
98: Plant response rating, Barnyardgrass ([2]; 125 g ai/ha) | Plant response rating (scale of 0 to 100), Crabgrass, Large [4, 17] | Plant response rating, Foxtail, Giant ([5]; 125 g ai/ha) | Plant response rating, Foxtail, Giant ([5]; 250 g ai/ha)
45: Plant response rating, Johnsongrass ([6]; 250 g ai/ha) | Plant response rating, Lambsquarters ([7]; 62 g ai/ha)
55: Plant response rating, Ragweed ([12]; 62 g ai/ha)
0: Plant response rating (scale of 0 to 100), Corn (corn (Zea mays); [17]) | Plant response rating (scale of 0 to 100), Morningglory [8, 17] | Plant response rating (scale of 0 to 100), Nutsedge, Yellow [9, 17] | Plant response rating, Nutsedge, Yellow ([9]; 62 g ai/ha) | Plant response rating, Nutsedge, Yellow ([9]; 125 g ai/ha) | Plant response rating, Nutsedge, Yellow ([9]; 250 g ai/ha) | Plant response rating (scale of 0 to 100), Pigweed [11, 17] | Plant response rating, Soybean (soybean (Glycine max); 125 g ai/ha)
50: Plant response rating, Pigweed ([11]; 125 g ai/ha) | Plant response rating, Pigweed ([11]; 250 g ai/ha) | Plant response rating (scale of 0 to 100), Waterhemp [15, 17] | Plant response rating, Wheat ([16]; 62 g ai/ha) | Plant response rating, Wheat ([16]; 125 g ai/ha)
85: Plant response rating (scale of 0 to 100), Barnyardgrass [2, 17] | Plant response rating, Lambsquarters ([7]; 250 g ai/ha) | Plant response rating, Oilseed Rape ([10]; 250 g ai/ha) | Plant response rating, Waterhemp ([15]; 250 g ai/ha)
70: Plant response rating, Corn (corn (Zea mays); 250 g ai/ha) | Plant response rating, Lambsquarters ([7]; 125 g ai/ha) | Plant response rating, Ragweed ([12]; 125 g ai/ha) | Plant response rating, Velvetleaf ([14]; 250 g ai/ha)
100: Plant response rating, Barnyardgrass ([2]; 250 g ai/ha) | Plant response rating, Crabgrass, Large ([4]; 62 g ai/ha) | Plant response rating, Crabgrass, Large ([4]; 125 g ai/ha) | Plant response rating, Crabgrass, Large ([4]; 250 g ai/ha)
20: Plant response rating, Morningglory ([8]; 125 g ai/ha) | Plant response rating (scale of 0 to 100), Velvetleaf [14, 17]
65: Plant response rating, Ryegrass, Italian ([13]; 125 g ai/ha) | Plant response rating, Waterhemp ([15]; 125 g ai/ha)
95: Plant response rating, Barnyardgrass ([2]; 62 g ai/ha) | Plant response rating, Foxtail, Giant ([5]; 62 g ai/ha)
30: Plant response rating (scale of 0 to 100), Oilseed Rape [10, 17] | Plant response rating (scale of 0 to 100), Ryegrass, Italian [13, 17]
